The text below walks through data of patent US7528250B2, “Chroman derivatives and uses thereof” (Roche Palo Alto LLC, priority 2004, dated 2009).

Where a name gives a salt, the structure may show the parent alone.

Series [1] addresses T1, recombinant human 5-HT6 receptor (Homo sapiens, UniProt P50406).
T1 construct: expressed in transfected cells; membranes
The series can be described thus: Radioligand binding, [3H]LSD competition, membranes of HEK293 cells expressing 5-HT6. Conditions: HEK293 cell membranes, pH 7.4, 37° C., 75 min, read-out: pKi for 5-HT6 (converted). Here is the method: (§1) The binding activity of compounds of this invention in vitro was determined as follows. Duplicate determinations of 5-HT6 ligand affinity were made by competing for binding of [^3H]LSD in cell membranes derived from HEK293 cells stably expressing recombinant human 5-HT6 receptor. Duplicate determinations of 5-HT2A ligand affinity were made by competing for binding of [^3H]Ketanserin (3-(2-(4-(4-fluorobenzoyl)piperidinol)ethyl)-2,4(1H,3H)-quinazolinedione) in cell membranes derived from CHO-K1 cells stably expressing recombinant human 5-HT2A receptor. Membranes were prepared from HEK 293 cell lines by the method described by Monsma et al., Molecular Pharmacology, Vol. 43 pp. 320-327 (1993), and from CHO-K1 cell lines as described by Bonhaus et al., Br J Pharmacol. June; 115(4):622-8 (1995).
(§2) For estimation of affinity at the 5-HT6 receptor, all determinations were made in assay buffer containing 50 mM Tris-HCl, 10 mM MgSO4, 0.5 mM EDTA, 1 mM ascorbic acid, pH 7.4 at 37° C., in a 250 microliter reaction volume. […]
(§3) Assay tubes containing [^3H] […] LSD or [^3H]Ketanserin were determined as radioactive counts per minute using Packard TopCount.
(§4) Displacement of [^3H]LSD or [^3H]Ketanserin from the binding sites was quantified by fitting concentration-binding data to a 4-parameter logistic equation: […]

Series [2] addresses T2, recombinant human 5-HT2A receptor (Homo sapiens, UniProt P28223).
T2 construct: expressed in transfected cells; membranes
The series can be described thus: Radioligand binding, [3H]Ketanserin competition, membranes of CHO-K1 cells expressing 5-HT2A. The following applies: CHO-K1 cell membranes, pH 7.4, 32° C., 60 min, read-out: pKi for 5-HT2A (converted). Here is the method: as §1, §2, §3, §4

T1 sequence (P50406 whole entry): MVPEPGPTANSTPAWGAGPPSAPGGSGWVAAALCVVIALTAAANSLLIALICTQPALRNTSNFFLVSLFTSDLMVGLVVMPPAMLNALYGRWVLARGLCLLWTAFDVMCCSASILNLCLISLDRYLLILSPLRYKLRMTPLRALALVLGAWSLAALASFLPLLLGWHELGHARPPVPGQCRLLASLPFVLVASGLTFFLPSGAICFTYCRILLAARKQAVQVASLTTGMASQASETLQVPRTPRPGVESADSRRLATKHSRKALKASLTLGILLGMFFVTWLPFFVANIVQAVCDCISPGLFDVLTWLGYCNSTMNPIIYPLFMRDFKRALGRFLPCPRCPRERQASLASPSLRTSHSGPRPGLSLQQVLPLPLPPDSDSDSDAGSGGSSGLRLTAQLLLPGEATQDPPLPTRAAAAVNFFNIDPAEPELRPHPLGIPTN
T2 sequence (P28223 whole entry): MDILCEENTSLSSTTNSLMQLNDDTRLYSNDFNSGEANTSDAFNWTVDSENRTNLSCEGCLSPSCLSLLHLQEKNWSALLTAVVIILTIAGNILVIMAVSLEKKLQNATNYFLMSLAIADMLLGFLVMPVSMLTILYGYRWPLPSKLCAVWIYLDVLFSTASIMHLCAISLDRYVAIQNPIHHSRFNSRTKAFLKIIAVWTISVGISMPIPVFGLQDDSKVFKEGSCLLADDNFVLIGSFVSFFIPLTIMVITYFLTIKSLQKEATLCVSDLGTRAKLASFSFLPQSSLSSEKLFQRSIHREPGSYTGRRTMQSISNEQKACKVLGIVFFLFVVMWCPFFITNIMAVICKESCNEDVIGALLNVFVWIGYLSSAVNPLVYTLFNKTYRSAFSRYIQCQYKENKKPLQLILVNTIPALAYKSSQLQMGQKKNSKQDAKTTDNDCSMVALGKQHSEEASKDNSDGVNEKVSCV

For the compound `O=S(=O)(c1ccccc1)c1ccc2c(c1)OCCC2N1CCNCC1` (stereo not drawn) (as salt: HCl) [Compound 1, 1-(7-Benzenesulfonyl-chroman-4-yl)-piperazine], the melting point lay within 243 to 249 °C.
For the compound `O=S(=O)(c1ccccc1)c1ccc2c(c1)OCCC2N1CCNCC1` (stereo not drawn) [Compound 1, 1-(7-Benzenesulfonyl-chroman-4-yl)-piperazine], the Ki in series [1] is ~0.000417 µM; in series [2], ~0.0468 µM.

By melting point is commonly meant the temperature of the solid-liquid transition.
